Assay results reported in the NIST ThermoML archive (doi:10.1021/acs.jced.5b00820).
Numbers after ± are expanded uncertainties.

Experiment: refractive index (Na D-line) (dimensionless); xn = mol fraction of the nth substance listed
Conditions: 102.2 kPa, Liquid, Standard Abbe refractometry

C[Si](C)(O[Si](C)(C)c1ccccc1)c1ccccc1 [1,3-diphenyltetramethyldisiloxane] + C[Si]1(CCC(F)(F)F)O[Si](C)(CCC(F)(F)F)O[Si](C)(CCC(F)(F)F)O1
refractive index
Conditions	308.15 K	313.15 K	318.15 K	323.15 K	328.15 K
x1 = 0.0501	1.36577 ± 0.00035	1.36376 ± 0.00035	1.36177 ± 0.00035	1.35973 ± 0.00035	1.3577 ± 0.0004
x1 = 0.1001	1.37152 ± 0.00035	1.36949 ± 0.00035	1.36745 ± 0.00035	1.36544 ± 0.00035	1.36339 ± 0.00035
x1 = 0.1499	1.37745 ± 0.00035	1.37541 ± 0.00035	1.37337 ± 0.00035	1.37133 ± 0.00035	1.36931 ± 0.00035
x1 = 0.2005	1.38359 ± 0.00035	1.38155 ± 0.00035	1.3795 ± 0.00035	1.37746 ± 0.00035	1.37541 ± 0.00035
x1 = 0.2497	1.38975 ± 0.00035	1.38769 ± 0.00035	1.38565 ± 0.00035	1.38355 ± 0.00035	1.38148 ± 0.00035
x1 = 0.3	1.39624 ± 0.00035	1.39416 ± 0.00035	1.39207 ± 0.00035	1.39 ± 0.00035	1.38792 ± 0.00035
x1 = 0.3431	1.40191 ± 0.00035	1.39984 ± 0.00035	1.39775 ± 0.00035	1.39565 ± 0.00035	1.3936 ± 0.00035
x1 = 0.4001	1.40958 ± 0.00035	1.40754 ± 0.00035	1.40546 ± 0.00035	1.40337 ± 0.00035	1.40125 ± 0.00035
x1 = 0.45	1.41665 ± 0.00035	1.41456 ± 0.00035	1.41246 ± 0.00035	1.41033 ± 0.00035	1.40824 ± 0.00035
x1 = 0.4998	1.42386 ± 0.00035	1.42173 ± 0.00035	1.41969 ± 0.00035	1.4175 ± 0.00035	1.41538 ± 0.00035
x1 = 0.5482	1.43101 ± 0.00035	1.42892 ± 0.00035	1.42678 ± 0.00035	1.42465 ± 0.00035	1.42246 ± 0.00035
x1 = 0.5996	1.43889 ± 0.00035	1.43676 ± 0.00035	1.43456 ± 0.00035	1.43246 ± 0.00035	1.43032 ± 0.00035
x1 = 0.6501	1.44686 ± 0.00035	1.44469 ± 0.00035	1.44253 ± 0.00035	1.44035 ± 0.00035	1.43816 ± 0.00035
x1 = 0.7	1.45499 ± 0.00035	1.45282 ± 0.00035	1.45064 ± 0.00035	1.44846 ± 0.00035	1.44627 ± 0.00035
x1 = 0.75	1.4634 ± 0.00035	1.4612 ± 0.00035	1.459 ± 0.00035	1.45683 ± 0.00035	1.4546 ± 0.0004
x1 = 0.8001	1.4721 ± 0.00035	1.46989 ± 0.00035	1.46772 ± 0.00035	1.4655 ± 0.00035	1.46326 ± 0.00035
x1 = 0.8499	1.48104 ± 0.00035	1.47886 ± 0.00035	1.47659 ± 0.00035	1.47441 ± 0.00035	1.47215 ± 0.00035
x1 = 0.8998	1.49033 ± 0.00035	1.48806 ± 0.00035	1.48584 ± 0.00035	1.48362 ± 0.00035	1.48135 ± 0.00035
x1 = 0.95	1.5001 ± 0.00035	1.49782 ± 0.00035	1.49555 ± 0.00035	1.49332 ± 0.00035	1.49106 ± 0.00035
x1 = 1	1.51009 ± 0.00035	1.50782 ± 0.00035	1.50561 ± 0.00035	1.50332 ± 0.00035	1.501 ± 0.00035
